Test results: patent publication US20210267203A1, “PESTICIDALLY ACTIVE AZOLE-AMIDE COMPOUNDS” (SYNGENTA PARTICIPATIONS AG, priority 2018, published 2021)

Tests used:
Format in all cases: in vivo
[1] = test system: Myzus persicae (Green Peach Aphid); test: Example B8: Myzus persicae (green peach aphid), intrinsic activity; details: 120 h, test rate 12 ppm, sucrose solution, 24-well, 5 days after infestation
In short: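 Compounds diluted from 10,000 ppm DMSO stock were mixed with sucrose solution under stretched Parafilm in a sachet feeding setup, with aphid-infested pea seedlings placed on the membrane. Mortality was scored 5 days after infestation.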

[2] = test system: Diabrotica Balteata (Corn Root Worm); test: Example B1: Diabrotica balteata (corn root worm), maize sprouts sprayed, L2 larvae; details: 96 h, application rate 200 ppm, 4 days after infestation, read-out: effect in at least one of the two categories (mortality or growth inhibition)
In short: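 Maize sprouts on agar sprayed with aqueous dilutions of 10,000 ppm DMSO stocks, dried, then infested with 6–10 L2 larvae per well. Mortality and growth inhibition scored against untreated samples 4 days after infestation; rates of 200 ppm.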

[3] = test system: Plutella xylostella (Diamond Back Moth); test: Example B5: Plutella xylostella (diamond back moth), artificial diet, 24-well, eggs; details: 192 h, application rate 200 ppm, 8 days after infestation, read-out: effect in at least one of the two categories (mortality or growth inhibition)
In short: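 Artificial diet in 24-well plates treated with aqueous dilutions of 10,000 ppm DMSO stocks, dried, then infested with Plutella eggs. Mortality and growth inhibition scored against untreated samples 8 days after infestation; activity rated at 200 ppm application rate.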

[4] = test system: Myzus persicae (Green Peach Aphid); test: Example B6: Myzus persicae (green peach aphid), feeding/contact activity; details: 144 h, application rate 200 ppm, 6 days after infestation
Experimental: Example B6: Myzus persicae (Green Peach Aphid):Feeding/Contact Activity
Sunflower leaf discs were placed onto agar in a 24-well microtiter plate and sprayed with aqueous test solutions prepared from 10,000 ppm DMSO stock solutions. After drying, the leaf discs were infested with an aphid population of mixed ages. The samples were assessed for mortality 6 days after infestation.

[5] = test system: Myzus persicae (Green Peach Aphid); test: Example B7: Myzus persicae (green peach aphid), systemic activity; details: 144 h, test rate 24 ppm, pea seedling roots in test solution, 6 days
Experimental: Example B7: Myzus persicae (Green Peach Aphid), Systemic Activity
Roots of pea seedlings infested with an aphid population of mixed ages were placed directly into aqueous test solutions prepared from 10,000 DMSO stock solutions. The samples were assessed for mortality 6 days after placing seedlings into test solutions.

[6] = test system: Myzus persicae (Green Peach Aphid); test: Example B13: activity against Myzus persicae (green peach aphid), 96-well sucrose solution; details: 120 h, application rate 50 ppm, 5 days after infestation
In short: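 Compounds, from 10,000 ppm DMSO stocks, mixed into sucrose solution in wells under stretched Parafilm, with aphids placed on the membrane in an inverted feeding setup. Mortality scored 5 days after infestation.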

[7] = test system: Spodoptera littoralis (Egyptian Cotton Leaf Worm); test: Example B10: Spodoptera littoralis (Egyptian cotton leaf worm), uptake by lettuce roots from agar, eggs; details: 144 h, test rate 12.5 ppm, lettuce root uptake, 6 days after infestation, read-out: effect in at least one of the three categories (mortality, anti-feeding, or growth inhibition)
In short: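 Compound mixed into agar from a 10,000 ppm DMSO stock; lettuce grown on it for 7 days for root uptake. Cut leaves infested with Spodoptera eggs; mortality, anti-feedant effect and growth inhibition scored against untreated samples 6 days after infestation.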

[8] = test system: Euschistus heros (Neotropical Brown Stink Bug); test: Example B2: Euschistus heros (neotropical brown stink bug), soybean leaves sprayed, N2 nymphs; details: 120 h, application rate 200 ppm, 5 days after infestation, read-out: effect in at least one of the two categories (mortality or growth inhibition)
In short: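 Soybean leaves on agar sprayed with aqueous test solutions made from 10,000 ppm DMSO stocks, dried, then infested with N2 nymphs. Mortality and growth inhibition scored versus untreated samples 5 days after infestation; activity threshold at 200 ppm.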

[9] = test system: Thrips tabaci (Onion Thrips); test: Example B12: Thrips tabaci (onion thrips), feeding/contact activity; details: 144 h, application rate 200 ppm, mixed ages, 6 days after infestation
Experimental: Example B12: Thrips tabaci (Onion Thrips) Feeding/Contact Activity
Sunflower leaf discs were placed on agar in 24-well microtiter plates and sprayed with aqueous test solutions prepared from 10,000 ppm DMSO stock solutions. After drying the leaf discs were infested with a thrips population of mixed ages. The samples were assessed for mortality 6 days after infestation.

[10] = test system: Spodoptera littoralis (Egyptian Cotton Leaf Worm); test: Example B9: Spodoptera littoralis (Egyptian cotton leaf worm), cotton leaf discs sprayed, L1 larvae; details: foliar, 72 h, application rate 200 ppm, 3 days after infestation
In short: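 Leaf discs on agar sprayed with aqueous dilutions from 10,000 ppm DMSO stock, dried, then infested with five L1 larvae. Mortality, anti-feeding and growth inhibition scored against untreated samples 3 days after infestation; control counted when any category exceeds untreated.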

[11] = test system: Plutella xylostella (Diamondback Moth); test: Example B14: activity against Plutella xylostella (diamondback moth), 96-well artificial diet; details: 216 h, application rate 500 ppm, 9 days after infestation
In short: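 Diet in 96-well plates was treated with aqueous dilutions of 10,000 ppm DMSO stocks, dried, and infested with 30 eggs per well via a netted lid; hatching L1 larvae fed on the diet. Mortality scored 9 days after infestation.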

[12] = test system: Chilo suppressalis (Striped Rice Stemborer); test: Example B4: Chilo suppressalis (striped rice stemborer), artificial diet, L2 larvae; details: 144 h, application rate 200 ppm, 6 days after infestation
In short: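 L2 larvae (6-8 per well) placed on artificial diet treated with aqueous test solutions prepared from 10,000 ppm DMSO stocks, after drying. Mortality, anti-feeding and growth inhibition scored against untreated samples 6 days after infestation; control means at least one category exceeds untreated.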

[13] = test system: Frankliniella occidentalis (Western Flower Thrips); test: Example B3: Frankliniella occidentalis (western flower thrips), feeding/contact activity; details: 168 h, application rate 200 ppm, mixed ages, 7 days after infestation
Experimental: Example B3: Frankliniella occidentalis (Western Flower Thrips):Feeding/Contact Activity
Sunflower leaf discs were placed on agar in 24-well microtiter plates and sprayed with aqueous test solutions prepared from 10,000 DMSO stock solutions. After drying the leaf discs were infested with a Frankliniella population of mixed ages. The samples were assessed for mortality 7 days after infestation.

[14] = test system: Tetranychus urticae (Two-Spotted Spider Mite); test: Example B11: Tetranychus urticae (two-spotted spider mite), feeding/contact activity; details: 192 h, application rate 200 ppm, mixed population (mobile stages), 8 days after infestation
Experimental: Example B11: Tetranychus urticae (Two-Spotted Spider Mite):Feeding/Contact Activity
Bean leaf discs on agar in 24-well microtiter plates were sprayed with aqueous test solutions prepared from 10,000 ppm DMSO stock solutions. After drying the leaf discs were infested with a mite population of mixed ages. The samples were assessed for mortality on mixed population (mobile stages) 8 days after infestation.

CC(c1ncnn1-c1ncccn1)N(CC1CC1)C(=O)c1cc([S+]([O-])C(F)(F)F)cc(C(F)(F)F)c1 (stereo not shown) [P26, N-(cyclopropylmethyl)-N-[1-(2-pyrimidin-2-yl-1,2,4-triazol-3-yl)ethyl]-3-(trifluoromethyl)-5-(trifluoromethylsulfinyl)benzamide]
≥ 80%: mortality at 12 ppm [1] | percent effect (mortality or growth inhibition) at 200 ppm [2] | percent effect (mortality or growth inhibition) at 200 ppm [3] | mortality at 200 ppm [4] | mortality at 24 ppm [5] | mortality at 50 ppm [6] | percent effect (mortality, anti-feeding or growth inhibition) at 12.5 ppm [7] | percent effect (mortality or growth inhibition) at 200 ppm [8] | mortality at 200 ppm [9] | percent control (mortality, anti-feedant effect or growth inhibition) at 200 ppm [10] | mortality at 500 ppm [11] | percent control (mortality, anti-feedant effect or growth inhibition) at 200 ppm [12]

CC(c1ncnn1-c1ncccn1)N(CC1CC1)C(=O)c1cc(C(F)(F)F)cc(C2(C(F)(F)F)CC2)c1 (stereo not shown) [P45, N-(cyclopropylmethyl)-N-[1-(2-pyrimidin-2-yl-1,2,4-triazol-3-yl)ethyl]-3-(trifluoromethyl)-5-[1-(trifluoromethyl)cyclopropyl]benzamide]
≥ 80%: mortality at 12 ppm [1] | percent effect (mortality or growth inhibition) at 200 ppm [2] | percent effect (mortality or growth inhibition) at 200 ppm [3] | mortality at 24 ppm [5] | mortality at 200 ppm [13] | mortality at 50 ppm [6] | percent effect (mortality, anti-feeding or growth inhibition) at 12.5 ppm [7] | percent effect (mortality or growth inhibition) at 200 ppm [8] | percent control (mortality, anti-feedant effect or growth inhibition) at 200 ppm [10] | mortality at 500 ppm [11]

CC(NC(=O)c1cc(-c2cccnc2Cl)cc(C(F)(F)F)c1)c1ncnn1-c1ncccn1 (stereo not shown) [P62, 3-(2-chloro-3-pyridyl)-N-[1-(2-pyrimidin-2-yl-1,2,4-triazol-3-yl)ethyl]-5-(trifluoromethyl)benzamide]
≥ 80%: mortality at 200 ppm [14]

CC(NC(=O)c1cc(C(F)(F)F)cc(S(C)(=O)=O)c1)c1ncnn1-c1ncccn1 (stereo not shown) [P64, 3-methylsulfonyl-N-[1-(2-pyrimidin-2-yl-1,2,4-triazol-3-yl)ethyl]-5-(trifluoromethyl)benzamide]
≥ 80%: mortality at 12 ppm [1] | percent effect (mortality or growth inhibition) at 200 ppm [2] | percent effect (mortality or growth inhibition) at 200 ppm [3] | mortality at 200 ppm [4] | mortality at 24 ppm [5] | mortality at 200 ppm [13] | mortality at 50 ppm [6] | percent effect (mortality or growth inhibition) at 200 ppm [8] | percent control (mortality, anti-feedant effect or growth inhibition) at 200 ppm [10] | percent control (mortality, anti-feedant effect or growth inhibition) at 200 ppm [12]

C[C@H](NC(=O)c1cc(C2CC2)cc(C(F)(F)F)c1)c1ncnn1-c1ncccn1 [P72, 3-cyclopropyl-N-[(1S)-1-(2-pyrimidin-2-yl-1,2,4-triazol-3-yl)ethyl]-5-(trifluoromethyl)benzamide]
≥ 80%: mortality at 12 ppm [1] | percent effect (mortality or growth inhibition) at 200 ppm [2] | percent effect (mortality or growth inhibition) at 200 ppm [3] | mortality at 200 ppm [4] | mortality at 200 ppm [13] | percent effect (mortality or growth inhibition) at 200 ppm [8] | percent control (mortality, anti-feedant effect or growth inhibition) at 200 ppm [10] | percent control (mortality, anti-feedant effect or growth inhibition) at 200 ppm [12]

Cc1nc(C(C)NC(=O)c2cc(C(F)(F)F)cc(C3(C#N)CC3)c2)n(-c2ncc(Br)cn2)n1 (stereo not shown) [P78, N-[1-[2-(5-bromopyrimidin-2-yl)-5-methyl-1,2,4-triazol-3-yl]ethyl]-3-(1-cyanocyclopropyl)-5-(trifluoromethyl)benzamide]
≥ 80%: mortality at 12 ppm [1] | percent effect (mortality or growth inhibition) at 200 ppm [2] | percent effect (mortality or growth inhibition) at 200 ppm [3] | mortality at 200 ppm [13] | percent effect (mortality or growth inhibition) at 200 ppm [8] | percent control (mortality, anti-feedant effect or growth inhibition) at 200 ppm [10] | percent control (mortality, anti-feedant effect or growth inhibition) at 200 ppm [12]

CC(NC(=O)c1cc(C(F)(F)F)cc(C2(C#N)CC2)c1)c1ncnn1-c1ncccn1 (stereo not shown) [P85, 3-(1-cyanocyclopropyl)-N-[1-(2-pyrimidin-2-yl-1,2,4-triazol-3-yl)ethyl]-5-(trifluoromethyl)benzamide]
≥ 80%: mortality at 12 ppm [1] | percent effect (mortality or growth inhibition) at 200 ppm [2] | percent effect (mortality or growth inhibition) at 200 ppm [3] | mortality at 200 ppm [4] | mortality at 200 ppm [13] | mortality at 50 ppm [6] | percent effect (mortality, anti-feeding or growth inhibition) at 12.5 ppm [7] | percent effect (mortality or growth inhibition) at 200 ppm [8] | percent control (mortality, anti-feedant effect or growth inhibition) at 200 ppm [10] | percent control (mortality, anti-feedant effect or growth inhibition) at 200 ppm [12]

CC(c1ncnn1-c1ncccn1)N(CC1CC1)C(=O)c1cc(C(F)(F)F)cc(S(=O)(=O)C(F)(F)F)c1 (stereo not shown) [P89, N-(cyclopropylmethyl)-N-[1-(2-pyrimidin-2-yl-1,2,4-triazol-3-yl)ethyl]-3-(trifluoromethyl)-5-(trifluoromethylsulfonyl)benzamide]
≥ 80%: mortality at 12 ppm [1] | percent effect (mortality or growth inhibition) at 200 ppm [2] | percent effect (mortality or growth inhibition) at 200 ppm [3] | mortality at 200 ppm [4] | mortality at 24 ppm [5] | mortality at 50 ppm [6] | percent effect (mortality, anti-feeding or growth inhibition) at 12.5 ppm [7] | percent effect (mortality or growth inhibition) at 200 ppm [8] | mortality at 200 ppm [9] | percent control (mortality, anti-feedant effect or growth inhibition) at 200 ppm [10] | mortality at 500 ppm [11] | percent control (mortality, anti-feedant effect or growth inhibition) at 200 ppm [12]
